Values after ≈ are worked out from the molar mass of the structure shown.
Legend:
[1] = test system: ob/ob mice; test: Hypoglycemic effect of 3 in diabetic model ob/ob mice; assay type: in vivo, mouse
[2] = test system: ICR mice; parameters: method as in PMID 25710631; conditions: normal mice (ICR mice); cited from earlier work
[3] = molecular target: T1, mouse TGR5 (Mus musculus, UniProt Q80SS6); test: In vitro TGR5 reporter gene assay (mTGR5/CRE/HEK293)
T1 sequence (Q80SS6 1-329): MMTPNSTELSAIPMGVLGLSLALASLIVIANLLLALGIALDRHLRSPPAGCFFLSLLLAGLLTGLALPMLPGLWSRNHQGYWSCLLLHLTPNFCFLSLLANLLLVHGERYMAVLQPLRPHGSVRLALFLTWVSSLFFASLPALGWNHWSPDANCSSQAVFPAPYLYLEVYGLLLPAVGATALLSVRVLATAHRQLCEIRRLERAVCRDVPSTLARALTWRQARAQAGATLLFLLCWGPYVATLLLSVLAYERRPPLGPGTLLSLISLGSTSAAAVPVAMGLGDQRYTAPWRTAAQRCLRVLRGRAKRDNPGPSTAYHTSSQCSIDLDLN

[4] = Solubility as noted in the SAR discussion; assay type: physicochemical; conditions: compounds containing Br
[5] = molecular target: T2, human TGR5 (Homo sapiens, UniProt Q8TDU6); test: In vitro TGR5 reporter gene assay (hTGR5/CRE/HEK293)
T2 sequence (Q8TDU6 1-330): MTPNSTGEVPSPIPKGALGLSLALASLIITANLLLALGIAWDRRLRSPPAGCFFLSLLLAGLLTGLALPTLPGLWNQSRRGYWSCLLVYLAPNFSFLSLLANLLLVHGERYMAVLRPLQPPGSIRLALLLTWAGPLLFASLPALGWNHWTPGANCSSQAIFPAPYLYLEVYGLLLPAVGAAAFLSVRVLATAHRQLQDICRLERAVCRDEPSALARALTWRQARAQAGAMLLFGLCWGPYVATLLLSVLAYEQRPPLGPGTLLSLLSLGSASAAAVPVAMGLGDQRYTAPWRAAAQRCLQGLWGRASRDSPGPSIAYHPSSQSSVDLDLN

[6] = Solubility in water determined by LC-MS/MS; assay type: physicochemical
[7] = test system: ICR mice; test: Oral glucose tolerance test (OGTT) in ICR mice; assay type: in vivo, mouse
Procedure: Blood glucose levels were measured berefore and after glucose loading. *p < 0.05, **p < 0.01 vs. control. Error bar indicateds SEM (standard error of the mean). […]
Oral glucose tolerance test (OGTT) and gallbladder filling assay in ICR mice. 100 […]
(§1) mice (n = 7-8) 90 min prior to the oral glucose load (4 g/kg). Blood glucose levels were measured via blood drops obtained by clipping the tail of the mice using an Accu-Chek Advantage II Glucose Monitor (Roche, Indianapolis, IN, USA) before compound dosing and 0, 15, 30, 60, and 120 min after the glucose load. The area under the concentration−time curve from 0 to 120 min (AUC0−120 min, Glu) of blood glucose after the glucose load was calculated by the trapezoidal rule. […]

[8] = test system: Caco-2 cells; test: Caco-2 permeability determination; assay type: in vitro ADME
Procedure: (§2) Caco-2 permeability determination. Caco-2 permeability determination was carried out […]
(§3) Caco-2 cells were obtained from the ATCC (Cat#HTB-37) and maintained in Dulbecco’s modified Eagle’s Medium containing 10% fetal bovine serum, 1% glutamine, 1% nonessential amino acids, 100 μg/mL streptomycin, and 100 U/mL penicillin.
(§4) CO2 and 90% relative humidity environment. Caco-2 cells were passaged every 7 days at a ratio of 1:10. Cells were used between passages 30 and 40. After 21 days of culture, the integrity of the cell monolayer was verified by measuring the transepithelial electrical […]
(§5) Drug transport from the apical side to the basolateral side (A-B) and from the basolateral side to the apical side was measured simultaneously under the same condition.
(§6) Propranolol and atenolol were used as the […] control, respectively.
(§7) Digoxin was used as the positive control for Pgp-mediated drug efflux. In brief, the method was as follows. After washing the monolayer with HBSS three times, the compounds were diluted and added to the appropriate well (pH 6.8 for apical side and pH […]
(§8) 7.4 for basolateral side). […] Samples were […]
(§9) collected from the donor side at 5 and 95 min, and from the receiver side at 35 and 95 min post-incubation. The concentration of samples was measured by LC-MS/MS. The Papp was calculated from the following equation:
(§10) Papp = (VA/(SA×T))×([drug]acceptor/ [durg]initial donor )
(§11) Where VA is the volume of the acceptor well, SA is the surface area of the membrane, T is the total transport time, [drug]acceptor is the drug level at the acceptor side, and [drug]initial donor is the drug level at the donor side at T = 0. […]

[9] = test system: ICR mice; test: Gallbladder filling assay in ICR mice; assay type: in vivo, mouse; conditions: once a day oral dose 50 mg/kg
Procedure: Figure 4 (A) Relative gallbladder area and (B) relative bile weight after once a day oral dose. After the OGTT experiment, mice were refed for 3 h, the gallbladder was removed and the area measured using a vernier caliper. The relative gallbladder area was calculated from the length multiplied by the width of the gallbladder. Bile weight was measured using analytical balances. *p < 0.05; **p < 0.01; ***p < 0.001. Error bar indicates SEM.
Caco-2 permeability determination. Caco-2 permeability determination was carried out according to (Eur. J. Med. Chem. 2014, 82, 1-15). […]
Drug transport from the apical side to the basolateral side (A-B) and from the basolateral side to the apical side was measured simultaneously under the same condition. […]
Digoxin was used as the positive control for Pgp-mediated drug efflux. […] The concentration of samples was measured by LC-MS/MS. The Papp was calculated from the following equation: […]
as §1

[10] = In vitro microsomal stability assay (human); assay type: in vitro ADME; conditions: human liver microsomes
Procedure: (§12) Acetonitrile (containing 0.1% formic acid; C (MeOH with 1% TFA). Flow rate: 0.6 […]
(§13) Data system: Masslynx 4.1 (Waters).
(§14) In vitro microsomal stability assay. The test compound was dissolved in DMSO and diluted to the desired concentration with DMSO and 0.1% aqueous BSA. Liver microsomes were incubated in a 96-well plate containing 0.1 M Tris buffer (pH 7.4), 0.33 mg/mL microsomal protein, 0.1 mM test compound, 5.0 mM MgCl2, 0.005% BSA, and 1.0 mM NADPH. Incubations were conducted at 37 °C. An aliquot was removed at each time point and the enzymatic reaction was stopped by protein precipitation in MeOH. The loss of the test compound was determined by LC-MS/MS. The intrinsic clearance (CLint, mL/min/g) was calculated from the following equation: […]
(§15) Where k (min-1) is the slope of the line of the natural log of the percentage parent remaining versus the time of incubation; P is the microsomal protein concentration

[11] = In vitro microsomal stability assay (mice); assay type: in vitro ADME; conditions: mice liver microsomes
Procedure: as §12, §13, §14, §15

[12] = Caco-2 permeability determination; assay type: in vitro ADME; conditions: human
Procedure: as §2, §3, §4, §5, §6, §7, §8, §9, §10, §11

[13] = Caco-2, apical to basolateral side
[14] = Caco-2, basolateral to apical side

O=C(CCc1cc(Cl)c(Oc2ccncc2C(=O)N2CCN(C3CC3)c3ccccc32)cc1Cl)NCCOCCOCCOCCOCCOCCOCCOCCOCCNC(=O)CCc1cc(Cl)c(Oc2ccncc2C(=O)N2CCN(C3CC3)c3ccccc32)cc1Cl [Compound 3]
hypoglycemic effect [1]: no significant effect
hypoglycemic efficacy [2]: moderate

O=C(c1sccc1Oc1cc(Cl)ccc1Br)N1CCN(C2CC2)c2ccccc21 [Compound 9c]
EC50 [3]: 3 ± 0.69 nM
melting point: 107 °C
solubility (in words) [4]: poor solubility
EC50 [5]: 0.58 ± 0.11 nM

O=C(c1cnccc1Oc1cc(Cl)ccc1Cl)N1CCN(C2CC2)c2ccccc21 [Compound 2, reference compound]
solubility [6]: 0.441 µg/mL (≈ 1 µM)
AUC0–120 min of blood glucose, signed change vs control (OGTT, Fig. 3B) ([7]; 50 mg/kg p.o.): -16%
decrease of blood glucose AUC vs control (OGTT) ([7]; 50 mg/kg p.o. 1.5 h before glucose 4 g/kg): 16%
Papp A to B [8, 13]: 6.75 10^−6 cm/s
Papp B to A [8, 14]: 5.58 10^−6 cm/s

CN1CCN(C(=O)c2sccc2Oc2ccc(C(F)(F)F)cc2)c2ccccc21 [Compound 9h]
melting point: 88 °C
EC50 [5]: 76 ± 9.8 nM

O=C(c1sccc1Oc1cc(Cl)ccc1Cl)N1CCN(C2CC2)c2ccccc21 [Compound 9a]
increase of gallbladder area vs control [9]: 210%
liver microsomal clearance (CLint) [10]: 1631 mL/min/g
EC50 [3]: 2.8 nM
melting point: 120 °C
liver microsomal clearance (CLint) [11]: 1390 mL/min/g
efflux ratio at 95 min ([12]; Caco-2): 0.8
Papp A→B at 95 min [12, 13]: 0.55 ×10⁻⁶ cm/s
Papp B→A at 95 min [12, 14]: 0.43 ×10⁻⁶ cm/s
EC50 [5]: 0.55 nM

— article PMC4919643, “Intestinally-targeted TGR5 agonists equipped with quaternary ammonium have an improved hypoglycemic effect and reduced gallbladder filling effect” (Scientific Reports, 2016)
